From article PMC5350031 (Circulation, 2017)
Read-outs that look alike come from different tables or passages of the source.

Key:
Tm-E54K and NTG mice = assay: Echocardiography, cardiac function and morphology after three months treatment; format: in vivo, mouse
[1] = tested on: hearts of Tm-E54K and NTG mice; assay: Histology, cell cross-sectional area; format: in vivo, mouse
[2] = tested on: detergent-extracted fiber bundles of NTG and Tm-E54K mice; format: in vivo, mouse; details: 3 months treatment; for Hill Coefficient / Max. Tension / pCa50 (Ca^2+ concentration at half-maximal tension): Mean ± SEM, n = 6–8 fibers
[3] = tested on: myofilament proteins (MLC2v, TnT, cTnI, cMyBP-C); assay: Myofilament protein phosphorylation in hearts of chronically treated mice; format: in vivo, mouse
[4] = tested on: Akt, GSK-3β, β-catenin, phospholamban, ERK1/2, RSK3, SRF, MYPT1/2, SERCA2; assay: Western blot of signaling pathways in hearts of chronically treated mice; format: in vivo, mouse
[5] = tested on: β-myosin heavy chain (β-MHC); assay: β-MHC protein expression in hearts of chronically treated mice; format: in vivo, mouse; details: Tm-E54K hearts, chronic treatment; untreated Tm-E54K approximately 30%
[6] = tested on: RSK3, MYPT1/2 and SRF phosphorylation in neonatal rat ventricular myocytes (NRVM); format: cell-based
[7] = Tm-E54K hearts, N = 4–6 hearts per group

Q: Which “cardiac output (in words)” value (Tm-E54K and NTG mice) does the source give for `CCCCc1nc(Cl)c(CO)n1Cc1ccc(-c2ccccc2-c2nn[nH]n2)cc1` [losartan] here?
A: did not have improved cardiac output

Q: And the “heart rate (in words)” value (Tm-E54K and NTG mice)?
A: nor an increase in heart rate

Q: And the “systolic / cardiac function (in words)” value (Tm-E54K and NTG mice; vs. Tm-E54K untreated)?
A: no changes in cardiac function

Q: What about the “cross-sectional cell area (in words)” value ([1]; NTG mice) of the same compound?
A: significant decrease

Q: And the “cross-sectional cell area (in words)” value ([1]; Tm-E54K mice)?
A: no effect

Q: And the “maximum tension generation (in words)” value ([2]; NTG mice)?
A: decrease in maximum tension generation

Q: And the “Hill Coefficient” value ([2]; NTG mice)?
A: 2.10 ± 0.12

Q: And the “Max. Tension” value ([2]; NTG mice)?
A: 25.73 ± 3.31 ^† mN/mm^2

Q: And the “pCa50 (Ca^2+ concentration at half-maximal tension)” value ([2]; NTG mice)?
A: significant decrease in pCa50 compared to both TRV067 and untreated NTG groups

Q: And the “pCa50 (Ca^2+ concentration at half-maximal tension)” value ([2]; NTG mice, listed as Losartan)?
A: 5.60 ± 0.02 ^†

Q: What about the “maximum tension generation (in words)” value ([2]; Tm-E54K mice) of the same compound?
A: no significant effect

Q: What about the “Hill Coefficient” value ([2]; Tm-E54K mice) of the same compound?
A: 2.00 ± 0.08

Q: And the “Max. Tension” value ([2]; Tm-E54K mice)?
A: 27.29 ± 1.07 ^∥ mN/mm^2

Q: What about the “MLC2v phosphorylation (in words)” value ([3]; Phos-Tag gel electrophoresis, NTG mice, vs. NTG untreated) of the same compound?
A: significantly decreased

Q: And the “TnT phosphorylation (in words)” value ([3]; ProQ diamond, Tm-E54K mice, vs. TRV067-treated Tm-E54K, N = 4–6 hearts per group)?
A: significant decrease

Q: And the “cMyBP-C phosphorylation at PKA sites (in words)” value ([3]; mice treated with TRV067 or losartan)?
A: did not observe an increase in other PKA phosphorylatable sites, such as cMyBP-C

Q: What about the “MYPT1/2 phosphorylation (in words)” value ([4]; NTG and Tm-E54K mice) of the same compound?
A: no effect

Q: What about the “RSK3 phosphorylation (in words)” value ([4]; NTG and Tm-E54K mice) of the same compound?
A: no effect

Q: And the “SRF phosphorylation (in words)” value ([4]; NTG and Tm-E54K mice)?
A: no effect

Q: And the “phospholamban (PLN) phosphorylation at S16 (in words)” value ([4]; NTG mice, vs. untreated controls)?
A: increase

Q: And the “SERCA2 protein expression (in words)” value ([4]; Tm-E54K and NTG mice, vs. untreated)?
A: no effect

Q: What about the “Akt phosphorylation at S473 (in words)” value [4, 7] of the same compound?
A: decreased

Q: And the “GSK-3β phosphorylation at S9 (in words)” value [4, 7]?
A: decreased

Q: And the “β-catenin phosphorylation (in words)” value [4, 7]?
A: increase

Q: What about the “phospholamban (PLN) phosphorylation at S16 (in words)” value ([4]; Tm-E54K mice) of the same compound?
A: increase

Q: What about the “phospholamban (PLN) phosphorylation at T17 (in words)” value ([4]; Tm-E54K mice) of the same compound?
A: not the T17 site

Q: And the “β-MHC expression, % of the isoform content” value [5]?
A: approximately 10%

Q: And the “MYPT1/2 phosphorylation (in words)” value [6]?
A: no effect

Q: What about the “RSK3 phosphorylation (in words)” value [6] of the same compound?
A: no effect

Q: And the “SRF phosphorylation (in words)” value [6]?
A: no effect
